Reference: paper PMC10011554, “BET inhibitor trotabresib in heavily pretreated patients with solid tumors and diffuse large B-cell lymphomas” (Nature Communications, 2023)

Test: Adverse events, DLTs, MTD and RP2D in phase I study CC-90010-ST-001 (NCI CTCAE v4.03)
Format: in vivo
Description: The primary endpoints of the study were the safety and tolerability of trotabresib, as well as the MTD and/or RP2D of trotabresib. Safety was assessed using the National Cancer Institute Common Terminology Criteria for Adverse Events v4.03[53].
The decision to evaluate additional subjects within a dose cohort, a higher dose cohort, intermediate dose cohorts, smaller dose increments, alternate dosing schedules, or declare an MTD will also be determined by the SRC, based on their review of clinical and laboratory safety […]
7.2.4. Definition of a Subject Evaluable for DLT
After the first dose is administered in any cohort during dose escalation, subjects in each cohort […]
more than one subject per day will be enrolled in a given dose escalation cohort.
A subject evaluable for DLT is defined as one that: […]
without experiencing a DLT,
Subjects non-evaluable for DLT will be replaced. Additional subjects within any dose cohort may be enrolled at the discretion of the SRC. Intra-subject dose escalation will not be allowed during the DLT assessment period.
7.2.5. Definition of Maximum Tolerated Dose (MTD) […]
of MTD is described in Section 7.2.2.
A variable dose cohort (eg, less frequent dosing) may be evaluated to accurately determine the MTD at the discretion of the SRC.
7.2.6. Definition of Dose-Limiting Toxicity (DLT) […]
used as a guide for the grading of severity of adverse events. A DLT is defined as any of the following toxicities occurring within the DLT assessment unless the event can clearly be […]
Do se-limiting toxicities are described below:
• Hyperglycemia meeting any of the following criteria:
− Grade 3 or greater fasting hyperglycemia (> 250 mg/dL) lasting > 4 days despite optimal medical treatment
(1 picture or pasted object on this page, not shown here)
− Hyperglycemia associated with diabetic ketoacidosis or nonketotic hyperosmolar coma regardless of glucose level
− Hyperglycemia that necessitates dose reduction despite dose interruption and resolution to ≤ grade 1 hyperglycemia within two weeks as described in […]
• Any Grade 4 non-hematologic toxicity of any duration
• Any non-hematologic toxicity Grade ≥ 3 EXCEPT for:
− Grade 3 diarrhea, nausea, or vomiting of ≤ 3 days duration (with optimal medical […]
− Grade 3 rash of the acneiform, pustular or maculopapular type which resolves to […]
level with resumption of study drug at the same dose (with optimal medical […]
− Grade 3 fatigue which resolves to Grade ≤ 2 within 7 days of study drug […]
the same dose (with optimal medical management).
• Hematological toxicities as follows:
− Grade 4 neutropenia lasting > 7 days
− Grade 4 thrombocytopenia lasting > 7 days, Grade ≥ 3 thrombocytopenia with clinically significant bleeding
• Any AE, Grade ≥ 2 not specified or exempt above, unless clearly determined to be unrelated to the drug, necessitating dose-level reduction during Cycle 1.
Isolated laboratory changes without associated clinical signs or symptoms (eg, hypomagnesemia, hypermagnesemia, hypoalbuminemia, hypophosphatemia, lymphocyte count increased or decreased) may not be included in this definition. These findings will be discussed and reviewed […]
7.2.7. Criteria for Dose Escalation in the Next Cohort of Subjects
During Part A, the dose escalation criteria are described in Section 7.2.2.
7.2.8. Definition of Stopping Criteria
During Part A, the dose escalation stopping rules are in Section 7.2.2.
7.2.9. Permitted Study Drug Adjustments
Dose reductions are permitted in any cycle, including Cycle 1.
• Dose reductions that occur in Cycle 1 during dose escalation will constitute DLT as […]

[1] = part B (12 subjects), 02 Dec 2019 cutoff

Cn1cc(-c2cc(S(C)(=O)=O)ccc2OCC2CC2)c2ccccc2c1=O [trotabresib]
TRAE: Hyperglycemia (part A, grade 3): 1.45%
TRAE: Hypertension (part A, grade 3): 0%
TRAE: Hyponatremia (part A, grade 3): 1.45%
TRAE: Hypophosphatemia (part A, grade 3): 1.45%
TRAE: Nausea (part A, grade 3): 0%
TRAE: Neutropenia (part A, grade 3): 1.45%
TRAE: Platelet count decreased (part A, grade 3): 1.45%
TRAE: Stomatitis (part A, grade 3): 0%
TRAE: Thrombocytopenia (part A, grade 3): 10.14%
TRAE: Vomiting (part A, grade 3): 0%
TRAE: ALT increased (part A, grade 4): 0%
TRAE: Anemia (part A, grade 4): 0%
TRAE: Any TRAE (part A, grade 4): 7.25%
TRAE: Asthenia (part A, grade 4): 0%
TRAE: Decreased appetite (part A, grade 4): 0%
TRAE: Dehydration (part A, grade 4): 0%
TRAE: Dermatitis acneiform (part A, grade 4): 0%
TRAE: Diarrhoea (part A, grade 4): 0%
TRAE: Dysgeusia (part A, grade 4): 0%
TRAE: Fatigue (part A, grade 4): 0%
TRAE: Hyperglycemia (part A, grade 4): 0%
TRAE: Hypertension (part A, grade 4): 0%
TRAE: Hyponatremia (part A, grade 4): 1.45%
TRAE: Hypophosphatemia (part A, grade 4): 0%
TRAE: Nausea (part A, grade 4): 0%
TRAE: Neutropenia (part A, grade 4): 0%
TRAE: Platelet count decreased (part A, grade 4): 1.45%
TRAE: Stomatitis (part A, grade 4): 0%
TRAE: Thrombocytopenia (part A, grade 4): 2.9%
TRAE: Vomiting (part A, grade 4): 0%
Grade 3 hyperglycemia, treatment-related [1]: 8.3%
Grade 4 hyperglycemia, treatment-related [1]: 8.3%
TEAE anemia [1]: 66.7%
TEAE thrombocytopenia [1]: 58.3%
hyperglycemia [1]: 33.3%
subjects with at least one TEAE [1]: 83.3%
TRAE: ALT increased (part B DLBCL, any grade): 8.7%
TRAE: Anemia (part B DLBCL, any grade): 43.48%
TRAE: Any TRAE (part B DLBCL, any grade): 100%
TRAE: Asthenia (part B DLBCL, any grade): 21.74%
TRAE: Decreased appetite (part B DLBCL, any grade): 21.74%
TRAE: Dehydration (part B DLBCL, any grade): 13.04%
TRAE: Dermatitis acneiform (part B DLBCL, any grade): 0%
TRAE: Diarrhoea (part B DLBCL, any grade): 52.17%
TRAE: Dysgeusia (part B DLBCL, any grade): 8.7%
TRAE: Fatigue (part B DLBCL, any grade): 0%
TRAE: Hyperglycemia (part B DLBCL, any grade): 39.13%
TRAE: Hypertension (part B DLBCL, any grade): 4.35%
TRAE: Hyponatremia (part B DLBCL, any grade): 8.7%
TRAE: Hypophosphatemia (part B DLBCL, any grade): 17.39%
TRAE: Nausea (part B DLBCL, any grade): 21.74%
TRAE: Neutropenia (part B DLBCL, any grade): 39.13%
TRAE: Platelet count decreased (part B DLBCL, any grade): 0%
TRAE: Stomatitis (part B DLBCL, any grade): 17.39%
TRAE: Thrombocytopenia (part B DLBCL, any grade): 91.3%
TRAE: Vomiting (part B DLBCL, any grade): 17.39%
TRAE: ALT increased (part B DLBCL, grade 3): 0%
TRAE: Anemia (part B DLBCL, grade 3): 26.09%
TRAE: Any TRAE (part B DLBCL, grade 3): 26.09%
TRAE: Asthenia (part B DLBCL, grade 3): 8.7%
TRAE: Decreased appetite (part B DLBCL, grade 3): 4.35%
TRAE: Dehydration (part B DLBCL, grade 3): 13.04%
TRAE: Dermatitis acneiform (part B DLBCL, grade 3): 0%
TRAE: Diarrhoea (part B DLBCL, grade 3): 0%
TRAE: Dysgeusia (part B DLBCL, grade 3): 0%
TRAE: Fatigue (part B DLBCL, grade 3): 0%
TRAE: Hyperglycemia (part B DLBCL, grade 3): 4.35%
TRAE: Hypertension (part B DLBCL, grade 3): 4.35%
TRAE: Hyponatremia (part B DLBCL, grade 3): 0%
TRAE: Hypophosphatemia (part B DLBCL, grade 3): 13.04%
TRAE: Nausea (part B DLBCL, grade 3): 4.35%
TRAE: Neutropenia (part B DLBCL, grade 3): 13.04%
TRAE: Platelet count decreased (part B DLBCL, grade 3): 0%
TRAE: Stomatitis (part B DLBCL, grade 3): 0%
TRAE: Thrombocytopenia (part B DLBCL, grade 3): 17.39%
TRAE: Vomiting (part B DLBCL, grade 3): 0%
TRAE: ALT increased (part B DLBCL, grade 4): 0%
TRAE: Anemia (part B DLBCL, grade 4): 0%
TRAE: Any TRAE (part B DLBCL, grade 4): 65.22%
TRAE: Asthenia (part B DLBCL, grade 4): 0%
TRAE: Decreased appetite (part B DLBCL, grade 4): 0%
TRAE: Dehydration (part B DLBCL, grade 4): 0%
TRAE: Dermatitis acneiform (part B DLBCL, grade 4): 0%
TRAE: Diarrhoea (part B DLBCL, grade 4): 0%
TRAE: Dysgeusia (part B DLBCL, grade 4): 0%
TRAE: Fatigue (part B DLBCL, grade 4): 0%
TRAE: Hyperglycemia (part B DLBCL, grade 4): 4.35%
